Columns and labels:
Type in all cases: cell-based
[1] = system: HIV mutant strain Mutant 1; assay: cellular assay using MT4-LTR-EGFP cells for anti-viral activity, mutant 1; conditions: Human immunodeficiency virus 1, 72 h, read-out: pEC50 Mutant 1 (converted)
Experimental: (§1) The compounds were tested in a cellular assay using the MT4-LTR-EGFP cells for anti-viral activity.
(§2) The cellular assay was performed according to the following procedure. HIV- or mock-infected MT4-LTR-EGFP cells were incubated for three days in the presence of various concentrations of the compounds mentioned above. Upon infection, the viral tat protein activates the GFP reporter. At the end of the incubation period, the GFP signal was measured. In the virus control samples (in the absence of any inhibitor) the maximal fluorescent signal was obtained. The inhibitory activity of the compound was monitored on the virus-infected cells and EC50 values were calculated. These values represent the amount of the compound required to protect 50% of the cells from virus infection. The data presented in table 1 contain the pEC50 values, being the negative logarithm of the EC50-values.

[2] = system: HIV mutant strain Mutant 2; assay: cellular assay using MT4-LTR-EGFP cells for anti-viral activity, mutant 2; conditions: Human immunodeficiency virus 1, 72 h, read-out: pEC50 Mutant 2 (converted)
Experimental: as §1, §2

[3] = system: HIV mutant strain Mutant 4; assay: cellular assay using MT4-LTR-EGFP cells for anti-viral activity, mutant 4; conditions: Human immunodeficiency virus 1, 72 h, read-out: pEC50 Mutant 4 (converted)
Experimental: as §1, §2

[4] = system: wild type laboratory HIV strain (WT IIIB-2-001); assay: microbe, parasite or virus in culture; conditions: Human immunodeficiency virus 1, 72 h, MT4-LTR-EGFP cells, three days incubation, GFP signal
Experimental: as §1
as §2, with “In the virus control samples (in the absence of any inhibitor) the maximal fluorescent signal was obtained.” left out

[5] = system: HIV mutant strain Mutant 3; assay: cellular assay using MT4-LTR-EGFP cells for anti-viral activity, mutant 3; conditions: Human immunodeficiency virus 1, 72 h, read-out: pEC50 Mutant 3 (converted)
Experimental: as §1, §2

Structure (SMILES) | EC50 [1] [nM] | EC50 [2] [nM] | EC50 [3] [nM] | EC50 [4] [nM] | EC50 [5] [nM]
CC(C)CN(C[C@@H](O)[C@H](Cc1ccccc1)NC(=O)O[C@H]1CO[C@H]2OCC[C@H]21)S(=O)(=O)c1ccc(N)cc1 [TMC 114, (3R,3aS,6aR)-hexahydrofuro[2,3-b]furan-3-yl N-[(1S,2R)-1-benzyl-2-hydroxy-3-(N1-isobutylsulfanilamido)propyl]carbamate, reference compound] | 8.13 | 794 | 3720 |  | 
CC(C)CN(C[C@@H](O)[C@H](Cc1ccccc1)NC(=O)O[C@H]1CO[C@H]2OC[C@H](OCc3ccccc3)[C@H]21)S(=O)(=O)c1ccc(N)cc1 [Compound 13, {3-[(4-amino-benzenesulfonyl)-isobutyl-amino]-1-benzyl-2-hydroxy-propyl}-carbamic acid 4-benzyloxy-hexahydro-furo[2,3-b]furan-3-yl ester] | 10 | 316 | 2000 | 1.58 | 126

From patent publication US8183394B2, “Protease inhibitor precursor synthesis” (priority 2005, dated 2012)
